Read-outs that look alike come from different tables or passages of the source.
How the values were obtained:
Nerve injured rats = assay: Mechanical allodynia (Electronic Von Frey) in chronic constriction injury model of neuropathic pain; assay type: in vivo, rat; details: MPE ± s.e.m.; 60 minutes after administration; CHF3381 30 mg/kg p.o., morphine 0.1 mg/kg s.c., alone or combined; vehicle 0.15±0.06
Excerpt: The animal model of chronic pain was a slight modification of the chronic constriction injury model of neuropathic pain originally described by Bennett G J et al in Pain 1988, 33, 87-107.
Nerve injured rats were placed on an elevated screen in a clear testing chamber and allowed to acclimate to the testing environment before any measurements were taken. The mechanical stimulus was delivered underneath to the plantar surface of the left hind paw of the rat by using the automated testing device Electronic Von Frey.
A steel rod was pushed against the hind paw with ascending force. The ramping of the force went from 0 to 50 g over a 20 s period. When the animal withdrew its hind paw, the mechanical stimulus was automatically withdrawn and the force at which the animal withdrew its paw was recorded. To quantify the mechanical sensitivity of the hind paws, withdrawal thresholds were taken from five consecutive trials with at least 10 s between each trial. The withdrawal threshold was taken to be the mean of the five trials (baseline value). […]
The values are expressed as Maximum Possible Effect (MPE)±s.e.m
The MPE value was calculated as follow: MPE=(PDR−IBR)/(CBR−IBR), where PDR is the post drug response of the ipsilateral paw, IBR is the ipsilateral paw baseline response and CBR is the contralateral paw baseline response. […]

Neuropathic rats [1] = assay: Cold allodynia (chilled metal floor) in chronic constriction injury model of neuropathic pain; assay type: in vivo, rat; details: mean ± s.e.m.; 60 minutes after treatment; 5±1° C. floor; CHF3381 30 mg/kg p.o., morphine 0.1 mg/kg s.c., alone or combined; vehicle 2.90±0.41 s
Experimental: (§1) The animal model of chronic pain was the same of Example 1.
Neuropathic rats were placed upon a metal floor chilled by an underlying water bath (5±1° C.) for a maximum of 20 s. The animals responded to the contact with the cold surface by lifting the paw on the ligated side off the floor. […] For each set of experiments, animals were pre-screened twice with 20 min interval between tests, in order to select animals displaying clear signs of allodynia, i.e. animals with a paw withdrawal latency on the ligated side of <10 s in both trials. […] The latency to paw withdrawal was then determined at 60 minutes after the administration of vehicle, CHF3381 (30 mg/kg p.o.) alone, morphine (0.1 mg/kg s.c.) alone or their combination.

Neuropathic rats [2] = assay: Mechanical hyperalgesia (analgesymeter, Randall method) in chronic constriction injury model of neuropathic pain; assay type: in vivo, rat; details: mean ± s.e.m.; CHF3381 30 mg/kg p.o., morphine 0.1 mg/kg s.c., alone or combined; cut-off 500 g; vehicle 105.7±8.2 g
Experimental: as §1
Nerve injured rats developed mechanical hyperalgesia […]. Indeed, in these animals the mean paw threshold was decreased to about 110 g on the ligated side compared to the contralateral side (about 350 g; P<0.01).
Mechanical hyperalgesia was assessed in neuropathic rats by using an analgesymeter according to the method reported in Randall L O et al (Arch Int Pharmacodyn Ther 1957, 111, 409-419). Mechanical nociceptive thresholds were evaluated by measuring paw withdrawal thresholds to an increasing pressure stimulus applied to the distal portion of the plantar surface of the hind paw. The site of the stimulation was on area of the hind paw between the pads at the base of the third and forth digit. A cut-off was set at 500 g to prevent any tissue damage and the endpoint was taken as a complete paw withdrawal.

mice = details: mean ± s.e.m.
Experimental: The animal model of inflammatory was a slight modification of the mouse paw formalin test originally described by Wheeler-Aceto H et al in Psychopharmacology 104, 35-44 (1991). Before formalin injection, mice were placed individually into clear plastic cylinders. After adaptation to the cage, 20 μl of 1% formalin was injected into the plantar surface of the left hind paw. Morphine was administered 30 min before formalin injection.
Mice, divided randomly into eight groups (13-16 animals/group), received treatment once daily for 4 days as follows: groups g1 and g2 received saline, 10 ml/kg i.p.; groups g3 and g4 received morphine 50 mg/kg i.p.; group g5 received morphine 50 mg/kg and CHF3381 30 mg/kg i.p.; group g6 received morphine 50 mg/kg and CHF3381 60 mg/kg i.p. On day 5, the mice received saline (g1 and g3), or morphine 6 mg/kg, i.p. (g2, g4, g5 and g6).
The amount of time, in seconds, the animals spent licking and flinching the injected paw from 10 to 40 min after formalin injection, was used as measurement of pain intensity.
The level of significance was set at P<0.05.

CN1CC[C@]23c4c5ccc(O)c4O[C@H]2[C@@H](O)C=C[C@H]3[C@H]1C5 [morphine]
Maximum Possible Effect (MPE) on paw withdrawal threshold to mechanical stimulation (Nerve injured rats): 0.21±0.07
mean paw withdrawal latency (cold allodynia) (Neuropathic rats [1]): 5.17 ± 0.86 s
Paw withdrawal threshold (mechanical hyperalgesia) (Neuropathic rats [2]): 105.8 ± 6.0 g
mean licking time, 10 to 40 min after formalin injection (mice; g2: saline i.p. days 1-4, morphine 6 mg/kg i.p. day 5, saline control g1 119.9±17.0): 65.9 ± 18.3 s
mean licking time, 10 to 40 min after formalin injection (mice; g3: morphine 50 mg/kg i.p. days 1-4, saline i.p. day 5): 143.9 ± 19.2 s
licking time, 10 to 40 min after formalin injection (mice; g4: morphine 50 mg/kg i.p. days 1-4, morphine 6 mg/kg i.p. day 5): 112.1 ± 13.4 s
